We go through 16 compounds from ChEMBL document CHEMBL3991601, “The target landscape of clinical kinase drugs” (Science, 2017).

Test [1] has as its target T1, Breakpoint cluster region protein (Homo sapiens, UniProt P11274).
T1 sequence (P11274 whole entry): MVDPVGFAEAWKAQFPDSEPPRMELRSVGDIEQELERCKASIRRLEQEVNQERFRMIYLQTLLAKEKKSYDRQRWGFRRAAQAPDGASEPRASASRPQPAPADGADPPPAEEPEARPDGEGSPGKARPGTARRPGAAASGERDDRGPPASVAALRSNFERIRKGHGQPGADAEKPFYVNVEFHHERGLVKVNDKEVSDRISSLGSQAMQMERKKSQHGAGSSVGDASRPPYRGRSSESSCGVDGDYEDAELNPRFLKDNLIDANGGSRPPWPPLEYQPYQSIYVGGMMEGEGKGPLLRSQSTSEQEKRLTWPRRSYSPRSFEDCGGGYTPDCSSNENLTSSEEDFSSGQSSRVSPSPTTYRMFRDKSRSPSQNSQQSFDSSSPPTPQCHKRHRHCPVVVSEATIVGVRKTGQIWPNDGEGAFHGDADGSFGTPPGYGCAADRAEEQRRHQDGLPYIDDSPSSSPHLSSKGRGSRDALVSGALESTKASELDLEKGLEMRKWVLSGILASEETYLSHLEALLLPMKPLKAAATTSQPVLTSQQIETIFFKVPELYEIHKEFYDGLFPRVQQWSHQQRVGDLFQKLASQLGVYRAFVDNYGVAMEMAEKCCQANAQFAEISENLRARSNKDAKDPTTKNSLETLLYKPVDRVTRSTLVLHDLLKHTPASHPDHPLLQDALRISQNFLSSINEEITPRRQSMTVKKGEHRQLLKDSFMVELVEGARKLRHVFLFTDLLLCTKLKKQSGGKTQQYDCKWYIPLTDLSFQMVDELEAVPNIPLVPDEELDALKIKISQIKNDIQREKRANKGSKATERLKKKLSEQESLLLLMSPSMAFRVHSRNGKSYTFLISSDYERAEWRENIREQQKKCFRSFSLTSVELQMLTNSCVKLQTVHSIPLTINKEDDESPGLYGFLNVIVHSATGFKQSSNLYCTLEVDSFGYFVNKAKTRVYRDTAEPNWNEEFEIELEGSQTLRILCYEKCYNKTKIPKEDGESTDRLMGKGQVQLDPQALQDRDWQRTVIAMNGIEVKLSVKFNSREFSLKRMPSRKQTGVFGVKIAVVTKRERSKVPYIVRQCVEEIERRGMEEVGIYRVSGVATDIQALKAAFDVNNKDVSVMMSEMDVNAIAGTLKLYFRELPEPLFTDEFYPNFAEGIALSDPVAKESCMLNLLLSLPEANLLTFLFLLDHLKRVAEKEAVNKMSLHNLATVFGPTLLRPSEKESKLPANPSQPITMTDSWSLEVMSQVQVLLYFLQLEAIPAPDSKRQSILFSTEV

Test [2] deals with Tyrosine-protein kinase BTK (Homo sapiens, UniProt Q06187).
Test [3] addresses U5 small nuclear ribonucleoprotein 200 kDa helicase (Homo sapiens, UniProt O75643).
Test [4] has as its target T2, Phosphorylase b kinase gamma catalytic chain, liver/testis isoform (Homo sapiens, UniProt P15735).
T2 sequence (P15735 whole entry): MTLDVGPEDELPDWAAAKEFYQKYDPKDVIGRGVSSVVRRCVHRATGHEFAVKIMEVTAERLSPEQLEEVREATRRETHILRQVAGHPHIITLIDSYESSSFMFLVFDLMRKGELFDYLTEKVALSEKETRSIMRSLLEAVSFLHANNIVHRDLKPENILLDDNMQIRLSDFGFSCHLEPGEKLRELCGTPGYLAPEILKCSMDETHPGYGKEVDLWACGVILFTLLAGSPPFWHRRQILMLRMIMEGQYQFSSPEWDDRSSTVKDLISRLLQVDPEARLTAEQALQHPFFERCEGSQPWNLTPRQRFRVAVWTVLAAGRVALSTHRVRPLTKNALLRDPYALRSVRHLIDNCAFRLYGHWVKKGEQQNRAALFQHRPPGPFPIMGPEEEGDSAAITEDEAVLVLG

In test [5] the target is T3, Succinate--CoA ligase [ADP-forming] subunit beta, mitochondrial (Homo sapiens, UniProt Q9P2R7).
T3 sequence (Q9P2R7 whole entry): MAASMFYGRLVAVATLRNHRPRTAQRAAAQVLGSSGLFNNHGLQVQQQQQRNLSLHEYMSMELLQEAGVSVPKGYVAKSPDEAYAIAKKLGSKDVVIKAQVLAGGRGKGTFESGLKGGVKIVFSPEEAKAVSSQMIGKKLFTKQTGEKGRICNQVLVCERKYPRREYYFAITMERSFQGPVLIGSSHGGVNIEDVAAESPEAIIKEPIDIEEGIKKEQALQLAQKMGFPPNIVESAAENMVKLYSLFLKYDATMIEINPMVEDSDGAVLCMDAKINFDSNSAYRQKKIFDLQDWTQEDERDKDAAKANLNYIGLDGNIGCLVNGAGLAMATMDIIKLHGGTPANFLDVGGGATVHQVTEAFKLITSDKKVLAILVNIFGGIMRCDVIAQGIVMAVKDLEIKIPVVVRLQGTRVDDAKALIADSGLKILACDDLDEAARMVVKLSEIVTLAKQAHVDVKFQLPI

Test [6] deals with Myosin light chain kinase, smooth muscle (Homo sapiens, UniProt Q15746).
Test [7] deals with Tyrosine-protein kinase ABL1 (Homo sapiens, UniProt P00519).

pKd: −log10 of the molar value. Calls of active or inactive are those of the source. Rule as the data show it, for most assays here: actives have a measured Kd and inactives only a lower limit. Bounds are passed on as bounds.
Also: in the data inactive means no Kd found up to 30 µM.

Myosin light chain kinase, smooth muscle, sequence (Q15746 whole entry): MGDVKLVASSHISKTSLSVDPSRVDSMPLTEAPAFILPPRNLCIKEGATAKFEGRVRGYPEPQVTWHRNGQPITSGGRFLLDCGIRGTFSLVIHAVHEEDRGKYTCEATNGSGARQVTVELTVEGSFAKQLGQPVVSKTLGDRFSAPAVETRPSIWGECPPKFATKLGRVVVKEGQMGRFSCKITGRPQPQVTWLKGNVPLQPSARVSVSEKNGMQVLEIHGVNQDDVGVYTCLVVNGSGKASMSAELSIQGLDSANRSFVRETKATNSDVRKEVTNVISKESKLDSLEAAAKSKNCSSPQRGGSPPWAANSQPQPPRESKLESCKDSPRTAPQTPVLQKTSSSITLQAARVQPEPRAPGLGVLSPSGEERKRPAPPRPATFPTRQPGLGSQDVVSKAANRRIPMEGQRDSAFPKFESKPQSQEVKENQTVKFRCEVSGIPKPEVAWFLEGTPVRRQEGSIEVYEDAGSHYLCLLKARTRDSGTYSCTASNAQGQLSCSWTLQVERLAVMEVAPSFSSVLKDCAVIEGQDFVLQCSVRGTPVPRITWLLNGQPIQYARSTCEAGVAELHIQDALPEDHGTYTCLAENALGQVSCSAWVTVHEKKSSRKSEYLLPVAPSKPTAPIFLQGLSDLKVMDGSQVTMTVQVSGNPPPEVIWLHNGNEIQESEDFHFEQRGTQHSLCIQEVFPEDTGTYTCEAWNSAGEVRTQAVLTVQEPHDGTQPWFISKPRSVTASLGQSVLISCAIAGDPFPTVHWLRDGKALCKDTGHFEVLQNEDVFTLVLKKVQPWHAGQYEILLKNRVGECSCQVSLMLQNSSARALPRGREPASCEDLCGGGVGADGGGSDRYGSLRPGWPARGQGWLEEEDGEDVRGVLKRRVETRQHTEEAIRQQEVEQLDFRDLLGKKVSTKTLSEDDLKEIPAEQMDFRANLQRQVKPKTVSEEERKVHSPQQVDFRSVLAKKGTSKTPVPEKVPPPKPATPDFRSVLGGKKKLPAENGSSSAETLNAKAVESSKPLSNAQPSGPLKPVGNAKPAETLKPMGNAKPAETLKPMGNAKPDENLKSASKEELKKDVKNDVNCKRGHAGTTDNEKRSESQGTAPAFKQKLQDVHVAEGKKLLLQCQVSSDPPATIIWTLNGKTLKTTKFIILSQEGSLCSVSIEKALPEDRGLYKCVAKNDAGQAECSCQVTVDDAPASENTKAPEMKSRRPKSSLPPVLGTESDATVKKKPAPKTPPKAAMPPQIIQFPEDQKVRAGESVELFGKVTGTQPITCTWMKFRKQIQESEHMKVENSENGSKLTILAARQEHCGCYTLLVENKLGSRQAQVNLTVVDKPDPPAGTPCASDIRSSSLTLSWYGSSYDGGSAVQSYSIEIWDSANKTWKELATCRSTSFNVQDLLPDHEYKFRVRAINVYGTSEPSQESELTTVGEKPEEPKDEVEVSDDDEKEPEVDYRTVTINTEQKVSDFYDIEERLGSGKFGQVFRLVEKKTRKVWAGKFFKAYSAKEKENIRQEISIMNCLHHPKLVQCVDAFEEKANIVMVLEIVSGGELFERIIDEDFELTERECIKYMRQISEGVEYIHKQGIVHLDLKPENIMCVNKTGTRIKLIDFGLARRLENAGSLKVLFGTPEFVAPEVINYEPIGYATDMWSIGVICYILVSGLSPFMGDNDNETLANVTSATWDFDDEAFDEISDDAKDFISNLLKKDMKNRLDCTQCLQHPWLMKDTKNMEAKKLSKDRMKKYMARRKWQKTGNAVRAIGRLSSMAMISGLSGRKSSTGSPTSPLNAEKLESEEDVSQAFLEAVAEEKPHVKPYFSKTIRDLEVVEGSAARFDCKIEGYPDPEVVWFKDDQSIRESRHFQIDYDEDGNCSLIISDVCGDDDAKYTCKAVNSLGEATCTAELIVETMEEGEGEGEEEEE
Tyrosine-protein kinase ABL1, sequence (P00519 whole entry): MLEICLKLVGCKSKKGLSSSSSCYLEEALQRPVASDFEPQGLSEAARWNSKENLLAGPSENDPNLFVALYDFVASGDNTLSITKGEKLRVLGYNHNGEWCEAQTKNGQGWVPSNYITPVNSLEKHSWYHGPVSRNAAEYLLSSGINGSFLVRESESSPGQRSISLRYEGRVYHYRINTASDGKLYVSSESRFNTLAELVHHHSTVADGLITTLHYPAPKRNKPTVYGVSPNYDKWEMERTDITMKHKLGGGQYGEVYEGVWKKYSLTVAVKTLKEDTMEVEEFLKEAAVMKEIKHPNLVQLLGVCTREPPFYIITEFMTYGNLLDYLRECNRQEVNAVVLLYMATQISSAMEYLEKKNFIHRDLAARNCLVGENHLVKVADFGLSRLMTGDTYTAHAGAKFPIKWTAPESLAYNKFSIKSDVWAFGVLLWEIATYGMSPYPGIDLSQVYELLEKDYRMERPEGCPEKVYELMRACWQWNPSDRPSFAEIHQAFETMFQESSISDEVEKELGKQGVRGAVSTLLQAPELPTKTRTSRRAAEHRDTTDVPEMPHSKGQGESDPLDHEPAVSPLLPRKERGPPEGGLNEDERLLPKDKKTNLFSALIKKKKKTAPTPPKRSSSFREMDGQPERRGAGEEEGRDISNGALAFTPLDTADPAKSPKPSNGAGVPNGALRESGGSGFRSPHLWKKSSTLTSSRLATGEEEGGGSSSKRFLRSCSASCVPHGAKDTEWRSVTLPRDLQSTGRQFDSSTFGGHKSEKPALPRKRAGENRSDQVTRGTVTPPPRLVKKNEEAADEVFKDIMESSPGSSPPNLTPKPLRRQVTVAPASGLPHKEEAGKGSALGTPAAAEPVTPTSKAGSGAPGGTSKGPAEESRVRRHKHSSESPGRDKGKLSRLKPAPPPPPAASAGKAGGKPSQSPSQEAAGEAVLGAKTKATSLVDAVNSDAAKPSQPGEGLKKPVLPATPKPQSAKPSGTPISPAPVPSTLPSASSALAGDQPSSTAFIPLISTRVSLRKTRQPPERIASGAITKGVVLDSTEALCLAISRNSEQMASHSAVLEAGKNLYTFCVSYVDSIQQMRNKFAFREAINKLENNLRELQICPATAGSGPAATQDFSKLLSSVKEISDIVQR
U5 small nuclear ribonucleoprotein 200 kDa helicase, sequence (O75643 whole entry, canonical isoform): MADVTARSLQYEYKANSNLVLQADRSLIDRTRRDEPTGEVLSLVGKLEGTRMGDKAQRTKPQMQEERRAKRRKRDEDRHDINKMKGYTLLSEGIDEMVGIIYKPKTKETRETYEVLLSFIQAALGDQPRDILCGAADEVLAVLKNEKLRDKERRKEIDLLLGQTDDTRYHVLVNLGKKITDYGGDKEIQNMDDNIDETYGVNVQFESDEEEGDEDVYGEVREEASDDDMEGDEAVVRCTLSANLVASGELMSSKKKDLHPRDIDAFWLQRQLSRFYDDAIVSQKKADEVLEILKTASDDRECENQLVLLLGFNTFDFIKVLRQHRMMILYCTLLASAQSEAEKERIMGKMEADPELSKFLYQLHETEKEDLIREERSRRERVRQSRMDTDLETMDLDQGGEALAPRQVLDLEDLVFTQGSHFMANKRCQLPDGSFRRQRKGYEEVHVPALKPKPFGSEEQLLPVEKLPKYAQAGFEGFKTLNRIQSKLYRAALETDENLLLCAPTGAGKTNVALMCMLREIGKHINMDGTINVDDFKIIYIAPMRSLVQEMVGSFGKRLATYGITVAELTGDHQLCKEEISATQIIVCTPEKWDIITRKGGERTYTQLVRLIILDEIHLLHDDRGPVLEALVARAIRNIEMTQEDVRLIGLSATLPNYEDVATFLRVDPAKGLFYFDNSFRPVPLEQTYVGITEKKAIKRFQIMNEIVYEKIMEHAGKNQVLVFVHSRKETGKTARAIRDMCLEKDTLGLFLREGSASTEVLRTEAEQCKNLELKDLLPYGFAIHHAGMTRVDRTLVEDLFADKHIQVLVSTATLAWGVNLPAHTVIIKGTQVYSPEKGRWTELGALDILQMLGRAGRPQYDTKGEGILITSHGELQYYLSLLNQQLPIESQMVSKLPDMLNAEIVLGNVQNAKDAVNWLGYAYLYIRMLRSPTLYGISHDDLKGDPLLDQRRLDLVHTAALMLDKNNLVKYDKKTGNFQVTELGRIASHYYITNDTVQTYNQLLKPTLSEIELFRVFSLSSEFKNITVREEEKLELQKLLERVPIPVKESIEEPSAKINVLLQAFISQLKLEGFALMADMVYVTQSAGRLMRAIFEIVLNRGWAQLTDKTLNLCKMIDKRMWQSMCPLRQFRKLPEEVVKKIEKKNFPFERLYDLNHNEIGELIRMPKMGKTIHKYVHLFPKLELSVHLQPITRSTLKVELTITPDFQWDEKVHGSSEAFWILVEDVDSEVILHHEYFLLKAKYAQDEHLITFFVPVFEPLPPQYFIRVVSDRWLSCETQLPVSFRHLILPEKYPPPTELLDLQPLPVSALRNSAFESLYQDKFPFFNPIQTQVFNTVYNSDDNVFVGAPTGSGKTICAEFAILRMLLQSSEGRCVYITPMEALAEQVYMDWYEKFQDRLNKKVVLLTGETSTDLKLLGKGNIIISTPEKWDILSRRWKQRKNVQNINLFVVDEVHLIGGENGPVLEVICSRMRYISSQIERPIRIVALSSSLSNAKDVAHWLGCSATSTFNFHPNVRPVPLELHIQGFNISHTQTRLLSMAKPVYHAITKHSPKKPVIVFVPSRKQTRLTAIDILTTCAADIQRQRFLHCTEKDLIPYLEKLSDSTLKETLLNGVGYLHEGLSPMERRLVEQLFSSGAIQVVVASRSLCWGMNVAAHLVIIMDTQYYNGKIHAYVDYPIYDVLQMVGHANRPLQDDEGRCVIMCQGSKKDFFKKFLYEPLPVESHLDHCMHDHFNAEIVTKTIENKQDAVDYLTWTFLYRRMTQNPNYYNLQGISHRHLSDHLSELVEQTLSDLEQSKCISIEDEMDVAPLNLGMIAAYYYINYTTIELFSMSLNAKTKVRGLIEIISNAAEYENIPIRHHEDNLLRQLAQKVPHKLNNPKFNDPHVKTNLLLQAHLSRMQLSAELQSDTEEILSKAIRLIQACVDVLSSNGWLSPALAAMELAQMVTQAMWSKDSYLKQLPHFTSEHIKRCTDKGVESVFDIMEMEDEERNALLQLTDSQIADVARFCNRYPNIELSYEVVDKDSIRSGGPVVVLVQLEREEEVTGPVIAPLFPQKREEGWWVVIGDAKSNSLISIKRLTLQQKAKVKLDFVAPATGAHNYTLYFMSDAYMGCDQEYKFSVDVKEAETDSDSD

As for `CC(C)Nc1cc(-c2c[nH]c(C(=O)N[C@H](CO)c3cccc(Cl)c3)c2)c(Cl)cn1` [ULIXERTINIB], the Kd in test [1], in test [2], in test [3], in test [4], in test [5] and in test [6] was > 30 µM (inactive) throughout. For the same compound, in test [7], the Kd was > 30 µM (inactive).

`O=C1NC(=O)/C(=C/c2ccc3nccc(-c4ccncc4)c3c2)S1` [GSK-1059615]: the Kd in test [1], in test [2], in test [3], in test [4], in test [5] and in test [6] was > 30 µM (inactive) each time. In addition, in test [7], the Kd is > 30 µM (inactive).

`C[C@@H]1CN(Cc2ccc(F)cc2)[C@@H](C)CN1C(=O)c1cc2c(C(=O)C(=O)N(C)C)cn(C)c2cc1Cl` [TALMAPIMOD]: the Kd in test [1], in test [2], in test [3], in test [4], in test [5] and in test [6] was > 30 µM (inactive) each time. Besides, in test [7], the Kd was > 30 µM (inactive).

With `CCS(=O)(=O)N1CC(CC#N)(n2cc(-c3ncnc4[nH]ccc34)cn2)C1` [BARICITINIB], the Kd in test [1], in test [2], in test [3], in test [4], in test [5] and in test [6] was > 30 µM (inactive) in each case. The Kd in test [7] was > 30 µM (inactive).

With `COc1ccc(-c2ccc3c(N4CCOC[C@@H]4C)nc(N4CCOC[C@@H]4C)nc3n2)cc1CO` [AZD-8055], the Kd in test [1], in test [2], in test [3], in test [4], in test [5] and in test [6] was > 30 µM (inactive) throughout. Moreover, the Kd in test [7] was > 30 µM (inactive).

Take `CN1CC[C@@H](c2c(O)cc(O)c3c(=O)cc(-c4ccccc4Cl)oc23)[C@@H]1CO`: the Kd in test [1], in test [2], in test [3], in test [4], in test [5] and in test [6] was > 30 µM (inactive) in each case. For the same compound, the Kd in test [7] was > 30 µM (inactive).

As for `C=CC(=O)N1CCC(Oc2cc3c(Nc4ccc(Cl)c(Cl)c4F)ncnc3cc2OC)CC1` [POZIOTINIB], the Kd in test [1] was > 30 µM (inactive); in test [2], 0.003 µM (active); in test [3] it was > 30 µM (inactive); in test [4] it was > 30 µM (inactive); in test [5] it was > 30 µM (inactive); in test [6], > 30 µM (inactive). Besides, in test [7], the Kd is > 30 µM (inactive).

Turning to `Cn1cc(-c2ccc3nnc(C(F)(F)c4ccc5ncccc5c4)n3n2)cn1` [JNJ-38877605], the Kd in test [1], in test [2], in test [3], in test [4], in test [5] and in test [6] was > 30 µM (inactive) each time. The Kd in test [7] is > 30 µM (inactive).

Turning to `Cc1ccc(-n2nc(C(C)(C)C)cc2NC(=O)NCc2cc(F)ccc2Oc2ccc3c(cnn3CCO)c2)cc1` [PEXMETINIB], the dissociation constant Kd in test [1] is 0.681 µM (active); in test [2] it was > 30 µM (inactive); in test [3], > 30 µM (inactive); in test [4] it was > 30 µM (inactive); in test [5], > 30 µM (inactive); in test [7] it was 0.211 µM (active). The compound also showed a pKd in test [6] of 7.09.

Regarding `COc1cc(N2CCC(N3CCN(C)CC3)CC2)ccc1Nc1ncnc(Nc2ccccc2S(=O)(=O)C(C)C)n1` [ASP-3026], the Kd was > 30 µM (inactive) in test [1]; 0.494 µM (active) in test [2]; > 30 µM (inactive) in test [3]; > 30 µM (inactive) in test [4]; > 30 µM (inactive) in test [5]; > 30 µM (inactive) in test [6]. Also, the Kd in test [7] was 5.26 µM (active).

Consider `CNC(=O)c1ccc(-c2cnc3ncc(Cc4ccc5ncccc5c4)n3n2)cc1F` [CAPMATINIB], for which the Kd in test [1], in test [2], in test [3], in test [4], in test [5] and in test [6] was > 30 µM (inactive) throughout. The Kd in test [7] was > 30 µM (inactive).

On to `CNC(=O)c1ccc(C)c(-n2c(C)cc(OCc3ccc(F)cc3F)c(Br)c2=O)c1` [PH-797804], for which the Kd in test [1], in test [2], in test [3], in test [4], in test [5] and in test [6] was > 30 µM (inactive) throughout. Also, the Kd in test [7] is > 30 µM (inactive).

As for `C[C@@H](Nc1cc(F)cc(F)c1)c1cc(C(=O)N(C)C)cc2c(=O)cc(N3CCOCC3)oc12` [AZD-8186], the Kd in test [1], in test [2], in test [3], in test [4], in test [5] and in test [6] was > 30 µM (inactive) in each case. Further, the Kd in test [7] was > 30 µM (inactive).

For `CN1CCC(COc2cnc(-c3cccc(Cn4nc(-c5cccc(C#N)c5)ccc4=O)c3)nc2)CC1` [TEPOTINIB], the Kd in test [1], in test [2], in test [3], in test [4], in test [5] and in test [6] was > 30 µM (inactive) throughout. In test [7], the Kd was > 30 µM (inactive).

`CNC(=O)c1cc(Oc2ccc(NC(=O)Nc3ccc(Cl)c(C(F)(F)F)c3)c(F)c2)ccn1` [REGORAFENIB]: the equilibrium dissociation constant (Kd) in test [1] was 0.739 µM (active); in test [2], > 30 µM (inactive); in test [3] it was > 30 µM (inactive); in test [4] it was > 30 µM (inactive); in test [5], > 30 µM (inactive); in test [6] it was > 30 µM (inactive). In addition, the Kd in test [7] is 0.753 µM (active).

In the case of `CCCS(=O)(=O)Nc1ccc(F)c(C(=O)c2c[nH]c3ncc(-c4ccc(Cl)cc4)cc23)c1F` [VEMURAFENIB], the Kd in test [1], in test [2], in test [3], in test [4], in test [5] and in test [6] was > 30 µM (inactive) throughout. For the same compound, the Kd in test [7] is > 30 µM (inactive).
